Assay results as given in ChEMBL document CHEMBL5614417, “Discovery of AMPs from random peptides via deep learning-based model and biological activity validation” (Eur J Med Chem, 2024).
Values after ≈ are worked out from the molar mass of the structure shown. Where a SMILES comes first, the peptide text is derived from it.

Key:
Staphylococcus aureus [1] = experiment: Antibacterial activity against methicillin resistant Staphylococcus aureus 1 incubated for 18 hrs by visual inspection method; type: functional
Escherichia coli [2] = experiment: Antibacterial activity against ESBL Escherichia coli 4 incubated for 18 hrs by visual inspection method; type: functional
Acinetobacter baumannii [3] = experiment: Antibacterial activity against multidrug resistant Acinetobacter baumannii 2 incubated for 18 hrs by visual inspection method; type: functional
Acinetobacter baumannii [4] = experiment: Antibacterial activity against multidrug resistant Acinetobacter baumannii 5 incubated for 18 hrs by visual inspection method; type: functional
Escherichia coli [5] = experiment: Antibacterial activity against Escherichia coli ATCC 25922 incubated for 18 hrs in presence of 50 mM NaCl by visual inspection method; type: functional
Escherichia coli [6] = experiment: Antibacterial activity against Escherichia coli ATCC 25922 incubated for 18 hrs in presence of 100 mM NaCl by visual inspection method; type: functional
[7] = Stability in Sprague-Dawley rat serum assessed as retention rate at 62.5 ug/ml measured after 2 hrs by RP-HPLC method; type: ADME, cell-free; settings: at 62.5 µg/mL, read-out: Stability
Cell membrane [8] = experiment: Induction of cell membrane damage in Staphylococcus aureus assessed as decrease in red/green fluorescence ratio by DiOC2(3) fluorescent probe based assay; type: cell membranes
Cell membrane [9] = experiment: Disruption of outer membrane integrity in Escherichia coli assessed as increase in fluorescence intensity by measuring NPN uptake at 1 to 4 times MIC by fluorescence based analysis; type: cell membranes; settings: TDE = time-dependent effect
Cell membrane [10] = experiment: Disruption of outer membrane integrity in Escherichia coli assessed as increase in fluorescence intensity by measuring NPN uptake measured every min for 15 mins by fluorescence based analysis; type: cell membranes
Staphylococcus aureus [11] = experiment: Inhibition of biofilm formation in Staphylococcus aureus at 8 times MIC incubated for 24 hrs by crystal violet staining based assay; type: functional
Staphylococcus aureus [12] = experiment: Inhibition of biofilm formation in Staphylococcus aureus at 4 times MIC incubated for 24 hrs by crystal violet staining based assay; type: functional
[13] = Toxicity in BALB/c mouse assessed as spleen damage at 400 mg/kg, ip measured after 48 hrs by H and E staining based assay; type: organism-based; settings: in vivo

`CC[C@H](C)[C@H](NC(=O)[C@H](Cc1ccccc1)NC(=O)[C@@H](N)Cc1c[nH]c2ccccc12)C(=O)N[C@H](C(=O)N[C@@H](Cc1c[nH]c2ccccc12)C(=O)N[C@@H](Cc1c[nH]cn1)C(=O)N[C@@H](Cc1c[nH]c2ccccc12)C(=O)N[C@@H](CCCNC(=N)N)C(=O)N[C@@H](CCCCN)C(=O)N[C@H](C(=O)N1CCC[C@H]1C(=O)N1CCC[C@H]1C(=O)N[C@@H](CCCCN)C(N)=O)[C@@H](C)CC)[C@@H](C)CC` (H-WFIIWHWRKIPPK-NH2) gave an MIC (Staphylococcus aureus [1]) of 7.5 µg/mL (≈ 4.15 µM), an MIC (Escherichia coli [2]) of 15 µg/mL (≈ 8.3 µM) and an MIC (Acinetobacter baumannii [3]) of 7.5 µg/mL (≈ 4.15 µM). It also gave an MIC (Acinetobacter baumannii [4]) of 7.5 µg/mL (≈ 4.15 µM), an MIC (Escherichia coli [5]) of 15 µg/mL and an MIC (Escherichia coli [6]) of 15 µg/mL. For the same molecule, the remaining at 2 h, 62.5 ug/ml [7] was 41.2%, the Activity (Cell membrane [8]) was “Dose-Dependent Effect” and the Activity (Cell membrane [9]) was “Tde”. For the same molecule, the Activity (Cell membrane [10]) was “Dose-Dependent Effect”, the “inhibition (INH)” value (Staphylococcus aureus [11]) was greater than 90% and the “inhibition (INH)” value (Staphylococcus aureus [12]) was 32.46%. For the same molecule, the Activity [13] was “Non-Toxic”.
